From ChEMBL document CHEMBL2439988, “Inhibition of human carbonic anhydrase isoforms I-XIV with sulfonamides incorporating fluorine and 1,3,5-triazine moieties” (Bioorg Med Chem, 2013)

Key:
[1] = target: Carbonic anhydrase 13 (Homo sapiens, UniProt Q8N1Q1); assay: Inhibition of human recombinant carbonic anhydrase13 cytosolic isoform expressed in Escherichia coli BL21 preincubated for 15 mins by stopped-flow CO2 hydration assay
[2] = target: Carbonic anhydrase 7 (Homo sapiens, UniProt P43166); assay: Inhibition of human recombinant carbonic anhydrase7 cytosolic isoform expressed in Escherichia coli BL21 preincubated for 15 mins by stopped-flow CO2 hydration assay
Chain of Carbonic anhydrase 7 (P43166 whole entry, canonical isoform): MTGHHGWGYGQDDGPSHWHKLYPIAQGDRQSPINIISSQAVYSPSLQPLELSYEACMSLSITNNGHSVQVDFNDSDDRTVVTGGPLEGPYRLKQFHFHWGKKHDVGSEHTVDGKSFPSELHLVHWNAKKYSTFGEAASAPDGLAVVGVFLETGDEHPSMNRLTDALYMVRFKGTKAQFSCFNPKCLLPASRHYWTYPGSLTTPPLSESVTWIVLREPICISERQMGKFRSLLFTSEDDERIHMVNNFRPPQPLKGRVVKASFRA

[3] = target: Carbonic anhydrase 12 (Homo sapiens, UniProt O43570); assay: Inhibition of human recombinant carbonic anhydrase12 transmembrane isoform expressed in Escherichia coli BL21 preincubated for 15 mins by stopped-flow CO2 hydration assay
Chain of Carbonic anhydrase 12 (O43570 whole entry, canonical isoform): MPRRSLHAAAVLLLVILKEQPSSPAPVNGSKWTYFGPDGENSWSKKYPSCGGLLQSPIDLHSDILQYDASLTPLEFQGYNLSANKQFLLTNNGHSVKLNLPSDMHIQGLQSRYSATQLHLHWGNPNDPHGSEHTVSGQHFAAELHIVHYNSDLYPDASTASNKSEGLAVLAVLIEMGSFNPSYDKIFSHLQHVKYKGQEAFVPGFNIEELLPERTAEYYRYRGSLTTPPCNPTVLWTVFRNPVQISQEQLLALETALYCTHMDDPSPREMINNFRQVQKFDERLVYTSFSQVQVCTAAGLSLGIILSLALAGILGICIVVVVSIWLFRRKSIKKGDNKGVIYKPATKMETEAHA

[4] = target: Carbonic anhydrase 2 (Homo sapiens, UniProt P00918); assay: Inhibition of human recombinant carbonic anhydrase2 cytosolic isoform expressed in Escherichia coli BL21 preincubated for 15 mins by stopped-flow CO2 hydration assay
[5] = target: Carbonic anhydrase 1 (Homo sapiens, UniProt P00915); assay: Inhibition of human recombinant carbonic anhydrase1 cytosolic isoform expressed in Escherichia coli BL21 preincubated for 15 mins by stopped-flow CO2 hydration assay
Chain of Carbonic anhydrase 1 (P00915 whole entry, canonical isoform): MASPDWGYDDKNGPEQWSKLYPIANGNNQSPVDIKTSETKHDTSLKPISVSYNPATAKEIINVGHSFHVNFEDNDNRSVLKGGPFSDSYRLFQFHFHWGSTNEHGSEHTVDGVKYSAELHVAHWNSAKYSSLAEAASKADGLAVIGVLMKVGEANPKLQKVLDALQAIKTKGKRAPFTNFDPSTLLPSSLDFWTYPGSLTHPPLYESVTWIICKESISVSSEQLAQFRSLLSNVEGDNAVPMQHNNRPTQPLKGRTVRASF

[6] = target: Carbonic anhydrase 5A, mitochondrial (Homo sapiens, UniProt P35218); assay: Inhibition of human recombinant carbonic anhydrase5A mitochondrial isoform expressed in Escherichia coli BL21 preincubated for 15 mins by stopped-flow CO2 hydration assay
Chain of Carbonic anhydrase 5A, mitochondrial (P35218 whole entry, canonical isoform): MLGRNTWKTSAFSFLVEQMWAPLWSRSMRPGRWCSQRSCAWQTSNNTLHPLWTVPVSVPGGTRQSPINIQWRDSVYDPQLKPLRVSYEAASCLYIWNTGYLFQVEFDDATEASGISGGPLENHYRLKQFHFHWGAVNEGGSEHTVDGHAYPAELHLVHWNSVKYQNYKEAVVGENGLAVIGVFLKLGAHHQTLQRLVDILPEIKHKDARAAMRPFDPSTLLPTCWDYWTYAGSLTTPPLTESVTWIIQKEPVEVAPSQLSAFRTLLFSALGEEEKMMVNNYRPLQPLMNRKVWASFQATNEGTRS

[7] = target: Carbonic anhydrase 4 (Homo sapiens, UniProt P22748); assay: Inhibition of human recombinant carbonic anhydrase4 membrane-bound isoform expressed in Escherichia coli BL21 preincubated for 15 mins by stopped-flow CO2 hydration assay
Chain of Carbonic anhydrase 4 (P22748 whole entry, canonical isoform): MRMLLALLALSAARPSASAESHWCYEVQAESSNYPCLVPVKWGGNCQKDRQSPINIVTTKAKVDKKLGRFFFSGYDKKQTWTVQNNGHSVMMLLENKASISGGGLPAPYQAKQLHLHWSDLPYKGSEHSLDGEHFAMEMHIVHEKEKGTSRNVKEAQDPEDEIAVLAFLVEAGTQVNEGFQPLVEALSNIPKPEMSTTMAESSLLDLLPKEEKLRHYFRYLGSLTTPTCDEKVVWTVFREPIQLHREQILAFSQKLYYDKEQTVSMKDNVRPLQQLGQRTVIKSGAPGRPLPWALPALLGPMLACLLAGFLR

[8] = target: Carbonic anhydrase 14 (Homo sapiens, UniProt Q9ULX7); assay: Inhibition of human recombinant carbonic anhydrase14 transmembrane isoform expressed in Escherichia coli BL21 preincubated for 15 mins by stopped-flow CO2 hydration assay
Chain of Carbonic anhydrase 14 (Q9ULX7 whole entry, canonical isoform): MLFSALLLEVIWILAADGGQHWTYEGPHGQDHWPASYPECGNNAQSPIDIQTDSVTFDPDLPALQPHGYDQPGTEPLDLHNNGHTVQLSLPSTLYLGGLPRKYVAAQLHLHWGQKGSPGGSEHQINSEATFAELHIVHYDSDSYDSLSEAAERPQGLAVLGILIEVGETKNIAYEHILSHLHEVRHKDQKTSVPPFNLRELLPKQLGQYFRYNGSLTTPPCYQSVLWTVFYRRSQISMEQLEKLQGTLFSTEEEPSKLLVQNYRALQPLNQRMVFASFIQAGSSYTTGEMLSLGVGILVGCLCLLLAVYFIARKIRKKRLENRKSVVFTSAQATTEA

[9] = target: Carbonic anhydrase 3 (Homo sapiens, UniProt P07451); assay: Inhibition of human recombinant carbonic anhydrase3 cytosolic isoform expressed in Escherichia coli BL21 preincubated for 15 mins by stopped-flow CO2 hydration assay
Chain of Carbonic anhydrase 3 (P07451 whole entry, canonical isoform): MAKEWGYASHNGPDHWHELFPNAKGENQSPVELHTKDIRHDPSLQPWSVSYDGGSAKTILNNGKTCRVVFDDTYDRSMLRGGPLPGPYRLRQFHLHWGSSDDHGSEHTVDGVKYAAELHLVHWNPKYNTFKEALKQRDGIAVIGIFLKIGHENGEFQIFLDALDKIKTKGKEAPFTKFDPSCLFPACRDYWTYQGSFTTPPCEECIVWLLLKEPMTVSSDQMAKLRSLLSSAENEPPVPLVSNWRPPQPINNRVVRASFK

[10] = target: Carbonic anhydrase 6 (Homo sapiens, UniProt P23280); assay: Inhibition of human recombinant carbonic anhydrase6 secreted isoform expressed in Escherichia coli BL21 preincubated for 15 mins by stopped-flow CO2 hydration assay
Chain of Carbonic anhydrase 6 (P23280 whole entry, canonical isoform): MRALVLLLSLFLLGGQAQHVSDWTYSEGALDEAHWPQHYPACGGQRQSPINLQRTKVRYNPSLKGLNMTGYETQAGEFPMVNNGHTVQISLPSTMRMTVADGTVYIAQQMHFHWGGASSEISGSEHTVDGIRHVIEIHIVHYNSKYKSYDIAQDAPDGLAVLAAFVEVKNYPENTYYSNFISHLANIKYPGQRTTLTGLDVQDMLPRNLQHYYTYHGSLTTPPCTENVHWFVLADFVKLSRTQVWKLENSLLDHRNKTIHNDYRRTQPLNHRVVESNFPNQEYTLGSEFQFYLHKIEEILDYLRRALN

[11] = target: Carbonic anhydrase 9 (Homo sapiens, UniProt Q16790); assay: Inhibition of human recombinant carbonic anhydrase9 transmembrane isoform expressed in Escherichia coli BL21 preincubated for 15 mins by stopped-flow CO2 hydration assay

Chain of Carbonic anhydrase 13 (Q8N1Q1 whole entry, canonical isoform): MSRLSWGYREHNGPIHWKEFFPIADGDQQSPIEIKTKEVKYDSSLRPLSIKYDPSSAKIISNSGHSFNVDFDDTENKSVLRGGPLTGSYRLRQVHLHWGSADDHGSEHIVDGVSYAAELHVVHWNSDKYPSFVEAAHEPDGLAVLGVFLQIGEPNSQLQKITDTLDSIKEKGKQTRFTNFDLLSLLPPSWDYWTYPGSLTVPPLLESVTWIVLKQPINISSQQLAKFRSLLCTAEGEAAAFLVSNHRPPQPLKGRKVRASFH

SMILES	Ki [1] [nM]	Ki [2] [nM]	Ki [3] [nM]	Ki [4] [nM]	Ki [5] [nM]	Ki [6] [nM]	Ki [7] [nM]	Ki [8] [nM]	Ki [9] [nM]	Ki [10] [nM]	Ki [11] [nM]
NS(=O)(=O)c1ccc(Nc2nc(F)nc(NCCO)n2)cc1	> 10000	8.5	17.5	5.5	238						208
CNc1nc(F)nc(Nc2ccc(S(N)(=O)=O)cc2)n1	735	6.7	15.4	5.4	90						228
COC(=O)CNc1nc(F)nc(NCCc2ccc(S(N)(=O)=O)cc2)n1	602	6.5	5	5.6	81.5	650	2740	214	6860	167	199
NS(=O)(=O)c1ccc(CCNc2nc(F)nc(NCC(=O)O)n2)cc1	> 10000	8.3	4.5	5	250	915	3660	126	9020	148	214

More lines, in order of falling Ki [1], values ahead:

Ki [1] [nM]	Ki [2] [nM]	Ki [3] [nM]	Ki [4] [nM]	Ki [5] [nM]	Ki [6] [nM]	Ki [7] [nM]	Ki [8] [nM]	Ki [9] [nM]	Ki [10] [nM]	Ki [11] [nM]	SMILES
1030	6.2	10	4.9	88							NS(=O)(=O)c1ccc(Nc2nc(F)nc(F)n2)cc1
921	45										CNc1nc(NC)nc(Nc2ccc(S(N)(=O)=O)cc2)n1
470	21.9	4.6	7.1	203	> 10000	1360	42	7010	1390		NS(=O)(=O)c1ccc(CCNc2nc(F)nc(F)n2)cc1
